Earlier results as cited in paper PMC10994248 (The Oncologist, 2024).

Tested on: FGFR2 fusion or rearranged cholangiocarcinoma
Conditions: after failure of first-line chemotherapy ref 20-22; cited from earlier work

## CCN1CCN(c2ccc(Nc3cc(N(C)C(=O)Nc4c(Cl)c(OC)cc(OC)c4Cl)ncn3)cc2)CC1 [infigratinib]
  Objective response rate: 23%

## CCN1C(=O)N(c2c(F)c(OC)cc(OC)c2F)Cc2cnc3[nH]c(CN4CCOCC4)cc3c21 [pemigatinib]
  Objective response rate: 36%
